Measured values published in ChEMBL document CHEMBL5137054, “Xyloketal B Reverses Nutritional Hepatic Steatosis, Steatohepatitis, and Liver Fibrosis through Activation of the PPARα/PGC1α Signaling Pathway” (J Nat Prod, 2022).
Activity calls are given as the source filed them.

Experiments:
Assay type in all cases: functional, organism-based
Conditions in all cases: time 6.0 weeks
Mus musculus [1] = experiment: Upregulation of Cpt1a gene transcriptional level in HFD-induced C57BL/6J mouse model of NAFL at 15 mg/kg/day, ip administered from week 7 to week 12 by qRT-PCR analysis
Mus musculus [2] = experiment: Upregulation of Cpt1b gene transcriptional level in HFD-induced C57BL/6J mouse model of NAFL at 15 mg/kg/day, ip administered from week 7 to week 12 by qRT-PCR analysis
Mus musculus [3] = experiment: Upregulation of peroxisomal bifunctional enzyme gene transcriptional level in HFD-induced C57BL/6J mouse model of NAFL at 15 mg/kg/day, ip administered from week 7 to week 12 by qRT-PCR analysis
Mus musculus [4] = experiment: Upregulation of Acaa1a gene transcriptional level in HFD-induced C57BL/6J mouse model of NAFL at 15 mg/kg/day, ip administered from week 7 to week 12 by qRT-PCR analysis
Mus musculus [5] = experiment: Upregulation of long-chain specific acyl-CoA dehydrogenase gene transcriptional level in HFD-induced C57BL/6J mouse model of NAFL at 15 mg/kg/day, ip administered from week 7 to week 12 by qRT-PCR analysis
Mus musculus [6] = experiment: Upregulation of Cyp4a14 gene transcriptional level in HFD-induced C57BL/6J mouse model of NAFL at 15 mg/kg/day, ip administered from week 7 to week 12 by qRT-PCR analysis
Mus musculus [7] = experiment: Upregulation of Acox1 gene transcriptional level in HFD-induced C57BL/6J mouse model of NAFL at 15 mg/kg/day, ip administered from week 7 to week 12 by qRT-PCR analysis
Mus musculus [8] = experiment: Upregulation of Medium-chain specific acyl-CoA dehydrogenase gene transcriptional level in HFD-induced C57BL/6J mouse model of NAFL at 15 mg/kg/day, ip administered from week 7 to week 12 by qRT-PCR analysis
Mus musculus [9] = experiment: Upregulation of Acox2 gene transcriptional level in HFD-induced C57BL/6J mouse model of NAFL at 15 mg/kg/day, ip administered from week 7 to week 12 by qRT-PCR analysis
Mus musculus [10] = experiment: Upregulation of Cpt1c gene transcriptional level in HFD-induced C57BL/6J mouse model of NAFL at 15 mg/kg/day, ip administered from week 7 to week 12 by qRT-PCR analysis
Mus musculus [11] = experiment: Upregulation of Cyp4a10 gene transcriptional level in HFD-induced C57BL/6J mouse model of NAFL at 15 mg/kg/day, ip administered from week 7 to week 12 by qRT-PCR analysis

Measured: Activity

CC(C)c1c(C(=O)Nc2ccccc2)c(-c2ccccc2)c(-c2ccc(F)cc2)n1CC[C@@H](O)C[C@@H](O)CC(=O)O
active: Mus musculus [1] | Mus musculus [2] | Mus musculus [3] | Mus musculus [4] | Mus musculus [5] | Mus musculus [6] | Mus musculus [7] | Mus musculus [8] | Mus musculus [9] | Mus musculus [10] | Mus musculus [11]
